# According to patent US20240158446A1, “CYCLIC COMPOUND HAVING SELECTIVE INHIBITORY ACTION ON KRAS OVER HRAS AND NRAS” (CHUGAI SEIYAKU KABUSHIKI KAISHA, priority 2021, published 2024):
# Read-outs that look alike come from different tables or passages of the source. Where a SMILES comes first, the peptide text is derived from it. Bridges are numbered along the chain shown (N, C = ends). [ ]: non-standard residue; d: D form. The star is where a group is joined. hPhe(3,5-F2-4-CF3) = N[C@@H](CCc1cc(F)c(C(F)(F)F)c(F)c1)C(=O)O; NPrPhe(4-CF3) = CCCN[C@@H](Cc1ccc(C(F)(F)F)cc1)C(=O)O; NMeGly(cPent) = CN[C@H](C(=O)O)C1CCCC1; αMeI = CC[C@H](C)[C@](C)(N)C(=O)O; NMeD = CN[C@@H](CC(=O)O)C(=O)O; NMeL = CN[C@@H](CC(C)C)C(=O)O; Morpholide = C1CN(*)CCO1; Sar = CNCC(=O)O
# Tests used:
# [1] = target: GDP-bound HRAS wild-type protein (Homo sapiens, UniProt P01112); test: Binding to HRAS by surface plasmon resonance (SPR), Single Cycle Kinetics; conditions: SPR, GDP-bound HRAS wild-type protein vs GDP-bound KRAS wild-type protein
# [2] = target: GDP-bound NRAS wild-type protein (Homo sapiens, UniProt P01111); test: Binding to NRAS by surface plasmon resonance (SPR), Single Cycle Kinetics; conditions: SPR, GDP-bound NRAS wild-type protein vs GDP-bound KRAS wild-type protein
# [3] = target: GDP-bound KRAS wild-type protein (Homo sapiens, UniProt P01116); test: Binding to KRAS by surface plasmon resonance (SPR), Single Cycle Kinetics; conditions: GDP-bound KRAS wild-type protein, read-out: KRAS KD
# [4] = SPR Single Cycle Kinetics, 1:1 binding model
# Sequence of GDP-bound NRAS wild-type protein (P01111 whole entry): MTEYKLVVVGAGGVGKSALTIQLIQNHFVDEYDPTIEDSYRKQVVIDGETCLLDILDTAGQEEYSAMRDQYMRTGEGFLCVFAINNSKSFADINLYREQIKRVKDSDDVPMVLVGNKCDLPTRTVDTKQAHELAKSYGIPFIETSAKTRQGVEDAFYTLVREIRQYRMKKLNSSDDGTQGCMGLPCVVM
# Sequence of GDP-bound KRAS wild-type protein (P01116 whole entry): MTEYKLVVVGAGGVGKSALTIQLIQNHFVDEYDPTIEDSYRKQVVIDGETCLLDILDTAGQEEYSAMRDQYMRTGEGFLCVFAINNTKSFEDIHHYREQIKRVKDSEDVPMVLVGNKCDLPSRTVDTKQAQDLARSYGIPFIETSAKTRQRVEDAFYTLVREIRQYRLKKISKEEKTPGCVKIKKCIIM
# Sequence of GDP-bound HRAS wild-type protein (P01112 whole entry): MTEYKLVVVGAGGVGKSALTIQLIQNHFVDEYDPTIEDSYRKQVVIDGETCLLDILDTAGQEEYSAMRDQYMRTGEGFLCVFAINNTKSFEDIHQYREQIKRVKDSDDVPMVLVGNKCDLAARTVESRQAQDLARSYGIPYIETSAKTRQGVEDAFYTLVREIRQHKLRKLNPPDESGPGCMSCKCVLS
Structure (SMILES),HRAS/KRAS (ratio of KD value with respect to HRAS to KD value with respect to KRAS) [1],NRAS/KRAS (ratio of KD value with respect to NRAS to KD value with respect to KRAS) [2],"Kd [3, 4]",HRAS/KRAS (ratio of KD value for HRAS to KD value for KRAS) [1],NRAS/KRAS (ratio of KD value for NRAS to KD value for KRAS) [2],"Kd ([3]; SPR, Single Cycle Kinetics)"
"CCCN1C(=O)CN(C)C(=O)CN(C)C(=O)[C@H]([C@@H](C)CC)NC(=O)[C@H](CC(C)C)N(C)C(=O)C[C@@H](C(=O)N2CCOCC2)N(C)C(=O)[C@H](C2CCCC2)N(C)C(=O)[C@](C)([C@@H](C)CC)NC(=O)[C@@H]2CCCN2C(=O)[C@H](CCc2cc(F)c(C(F)(F)F)c(F)c2)NC(=O)CN(C)C(=O)[C@@H]1Cc1ccc(C(F)(F)F)cc1 [PP0757] ([NMeL]I[Sar][Sar][NPrPhe(4-CF3)][Sar][hPhe(3,5-F2-4-CF3)]P[αMeI][NMeGly(cPent)][NMeD]-Morpholide; lactam N-11)",C (A compound having a KD ratio of 0.1 or more and less than 3 is denoted as C),B (a compound having 3 or more and less than 10 is denoted as B),4 nM,,,
CC[C@H](C)[C@@H]1NC(=O)[C@H](CC(C)C)N(C)C(=O)C[C@@H](C(=O)N2CCOCC2)N(C)C(=O)[C@H](C2CCCC2)N(C)C(=O)C2(CCCC2)NC(=O)[C@@H]2CCCN2C(=O)[C@H](CCc2ccc(C(F)(F)F)c(Cl)c2)NC(=O)CN(C)C(=O)[C@H](Cc2ccc(OC(F)(F)F)cc2)N2C/C=C\CC[C@@H](C2=O)N(C)C(=O)CN(C)C1=O [PP0610],B (a compound having 3 or more and less than 10 is denoted as B),B (a compound having 3 or more and less than 10 is denoted as B),49 nM,,,
CCO[C@@H]1C[C@H]2C(=O)NC3(CCC3)C(=O)N(C)[C@@H](C3CCCC3)C(=O)N(CC)[C@H](C(=O)N(C)C)CC(=O)N(C)[C@@H](CC)C(=O)N[C@@H]([C@@H](C)CC)C(=O)N(C)CC(=O)N(C)[C@H]3CCCCN(C3=O)[C@@H](Cc3ccc(C(F)(F)F)cc3)C(=O)N(C)CC(=O)N[C@@H](CCc3cc(F)c(C(F)(F)F)c(F)c3)C(=O)N2C1 [PP0643],B (a compound having 3 or more and less than 10 is denoted as B),C (A compound having a KD ratio of 0.1 or more and less than 3 is denoted as C),0.074 nM,,,
CCC[C@H]1C(=O)N[C@@H]([C@@H](C)CC)C(=O)N2CCC[C@H]2C(=O)N(C)[C@H]2C/C=C\CCN(C2=O)[C@@H](Cc2ccc(C)cc2)C(=O)N(C)CC(=O)N[C@@H](CCc2ccc(C(F)(F)F)c(OC)c2)C(=O)N2C[C@H](OCC)C[C@H]2C(=O)N(C)C2(CCC2)C(=O)N(C)[C@@H](C2CCCC2)C(=O)N(C)[C@H](C(=O)N(C)C)CC(=O)N1C [PP2332],,,,B (a compound having 3 or more and less than 10 is denoted as B),A (a compound having 10 or more and less than 20 is denoted as A),0.1 nM
CCO[C@@H]1C[C@H]2C(=O)NC3(CCC3)C(=O)N(C)[C@@H](C3CCCC3)C(=O)N(CCC3CCCC3)[C@H](C(=O)N3CCOCC3)CC(=O)N(C)[C@@H](CC(C)C)C(=O)N[C@@H]([C@@H](C)CC)C(=O)N(C)CC(=O)N(C)[C@H]3CCCCN(C3=O)[C@@H](Cc3ccc(C(F)(F)F)cc3)C(=O)N(C)CC(=O)N[C@@H](CCc3cc(F)c(C(F)(F)F)c(F)c3)C(=O)N2C1 [PP0651],B (a compound having 3 or more and less than 10 is denoted as B),B (a compound having 3 or more and less than 10 is denoted as B),0.6 nM,,,
